Laboratory results published in paper PMC3250956, “Functional characterization and analgesic effects of mixed cannabinoid receptor/T-type channel ligands” (Molecular Pain, 2011).

Legend:
[1] = target: T1, human 5-HT2A (Homo sapiens, UniProt P28223); assay: Primary radioligand competitive binding assay, [3H]ketanserin; settings: ligand 10 μM, HEK293 cells
T1 construct: expressed in transfected cells; host or cells: HEK293 (Flp-In system, pcDNA5.0FRT)
Experimental: HEK293 cells and CHO cells were used in the radioligand binding assay while tsA-201 cells were used in the electrophysiological study. Human CB2, human 5-HT2A, rat 5-HT2C used in the binding studies were cloned into pcDNA5.0FRT and cell lines were made using the FlpIn system from Invitrogen. tsA-201 cell culture and transient calcium channel transfection were performed as described previously. In brief, tsA-201 cells were transfected using the calcium phosphate method. Cav3.1, 3.2 and 3.3 α1 subunits were transfected individually with yellow fluorescent protein as a transfection marker.
Radioligand binding data were obtained using National Institute of Mental Health's Psychoactive Drug Screening Program (NIMH/PDSP) using the same protocol described for CB1 and CB2 binding experiments. Transfected HEK293 (human 5-HT2A or rat 5-HT2C) cells were used. The radioligands were [^3H]ketanserin (0.5 nM) and [^3H]mesulergine (0.5 nM) for respectively 5-HT2A and 5-HT2C experiments. Non-specific binding was determined in the presence of 10 μM chlorpromazine for both 5-HT2A and 5-HT2C binding experiments. Cells were harvested and homogenized in 50 mM Tris HCl, 10 mM MgCl2, 0.1 mM EDTA, pH 7.4. Incubation of radioreceptor binding assay mixtures was 1.5 hours at room temperature in the dark.

[2] = target: T2, Cav3.2 (Homo sapiens, UniProt O95180); assay: Whole-cell patch-clamp on Cav3.2: concentration-response and steady-state inactivation; assay type: cell-based; settings: 10 μM; for half-inactivation potential after treatment with drug: n = 4
T2 construct: expressed in transfected cells; host or cells: tsA-201 cells, transient calcium phosphate transfection
Experimental: To further characterize compounds NMP-4, NMP-7 and NMP-144, we investigated the concentration dependence of their action on Cav3.2, the major T-type calcium channel subtype implicated in the afferent pain pathway (Figure 2B, C).
To determine whether these compounds also affected inactivated channels, we recorded steady-state inactivation curves prior and after application of NMP-4, NMP-7 or NMP-144.
Whole-cell currents were recorded from tsa-201 cells 2-4 days after transfection. The external recording solution contained (in mM): BaCl2 (20), MgCl2 (1), HEPES (10), TEA-Cl (40), CsCl (65), d-glucose (10) and pH 7.2 adjusted with TEA-OH. The internal pipette solution was composed of (in mM) Cs-methanesulfonate (108), MgCl2 (4), EGTA (9), HEPES (9) and pH 7.2 adjusted with CsOH. The internal solution was supplemented with 0.6 mM GTP (sodium salt) and 2 mM ATP (tris salt), which were added directly to the internal solution immediately prior to use. Pipettes with a resistance of 2~5 MΩ when filled with internal solution were used for recording. Currents were elicited from a holding potential of -100 mV and were measured by conventional whole-cell patch clamp using an Axopatch 200B amplifier in combination with Clampex 9.2 software (Axon Instruments, Foster City, CA). Data were filtered at 1 kHz (8-pole Bessel) and digitized at 10 kHz with a Digidata 1320 (Axon Instruments, Foster City, CA). Series resistance were compensated by 85% in all experiments. An online P/4 programme was used to subtract the leak currents. Drugs were dissolved in DMSO at the following stock concentrations: 20 mM for NMP-4 and NMP-7, and 10 mM for NMP-139, NMP-140, NMP-141 and NMP-144. Prior to the experiment, drugs were diluted into external recording solution with a final DMSO concentration no higher than 0.3%. DMSO was also included in the control solution. Drug delivery was controlled by a Valvelink8.2 fast perfusion system (Automate Scientific Inc., Berkeley, CA). The perfusion tip was positioned a few hundred microns from the cell and kept as constant as possible throughout the experiments. Electrophysiological data were analyzed using Clampfit 9.2 (Axon Instruments, Foster City, CA) and GraphPad Prism 5 software (GraphPad Software Inc., San Diego, CA). […] Steady-state inactivation curves were fitted using the Boltzmann equation: I = 1/(1 + e ^(V-Vh)/k), where Vh is the half inactivating potential and k is the slope factor.

[3] = test system: formalin-induced pain; assay: Formalin test (formalin-induced nociception); assay type: in vivo, mice; settings: for effect on second phase of formalin-induced nociception / effect on first phase of formalin-induced nociception: i.pl., co-injected with formalin; for effect on second phase of formalin-induced nociception: 0.03-3 μg/paw; for effect on first phase of formalin-induced nociception: NMP-4 and NMP-144 0.03-3 μg/paw, NMP-7 0.3-3 μg/i.pl.; for reduction of pain response time, first (neurogenic) phase / reduction of pain response time, second (inflammatory) phase: 10 min prior, NMP-4 1-10 μg/i.t., NMP-144 0.1-1 μg/i.t., NMP-7 3-30 μg/i.t., mice
Experimental: All experiments were conducted following the protocol approved by the Institutional Animal Care and Use Committee (protocol #M09130) and all efforts were made to minimize animal suffering. Male mice of C57BL/6J strain weighing 25~30 g, 10 weeks old were used. Animals were housed at a maximum number of five per cage (30 × 20 × 15 cm) with food and water ad libitum. They were kept in 12 h light/dark cycles (lights on at 7:00 a.m.) at a temperature of 23 ± 1°C. All manipulations were carried out between 11:00 am and 3:00 pm. […] Control animals received the same vehicle used to dilute the compounds. When drugs were delivered by intraperitoneal (i.p.) route, a constant volume of 10 ml/kg body weight was injected. When drugs were administered by intrathecal (i.t.) or intraplantar (i.pl.) routes, respectively volumes of 5 μl or 20 μl were injected. Appropriate vehicle-treated groups were also assessed simultaneously.
The formalin test is a widely used model that allows us to evaluate two different types of pain: neurogenic pain (phase 1) is caused by direct activation of nociceptive nerve terminals, while inflammatory pain (phase 2) is mediated by a combination of peripheral input and spinal cord sensitization. Animals received 20 μl of a formalin solution (1.25%) made up in PBS injected intraplantarly (i.pl.) in the ventral surface of the right hindpaw. Following i.pl. injection of formalin, the animals were immediately placed individually into observation chambers and the time spent licking or biting the injected paw was be recorded and considered as nociceptive response. We observed animals individually from 0-5 min (neurogenic phase) and 15-30 min (inflammatory phase).
Intrathecal injections were given to fully conscious mice using the method previously described by Hylden and Wilcox. Briefly, the animals were manually restrained, and a 30-gauge needle connected by a polyethylene tube to a 25 μl Hamilton syringe (Hamilton, Birmingham, UK) was inserted through the skin and between the vertebrae into the […] space of the L5-L6 spinal segments. Intrathecal injections were given over a period of 5 seconds.

[4] = target: Human CB1 (Homo sapiens, UniProt P21554); assay: GTPγ[35S] functional assay, CHO cell membrane extracts; design: Emax: dose or concentration left out as unconfirmed
Experimental: Functional activity was evaluated using GTPγ[^35S] assay in CHO cell membrane extracts expressing recombinant human CB1 or CB2 receptors as we previously described [51]. Compounds were solubilized in 100% DMSO at a concentration of 10 mM within 4 hours of the first testing session. A predilution for the dose response curve was performed in 100% DMSO and then diluted 100 fold in assay buffer at a concentration 2 fold higher than the concentration to be tested. […] Membranes were mixed with GDP diluted in assay buffer to give 30 μM solution (volume:volume) and incubated for at least 15 min on ice. In parallel, GTPγ[^35S] (GE Healthcare, Catalogue number SJ1308) were mixed with the beads (PVT-WGA (GE Healthcare, RPNQ001)), diluted in assay buffer at 50 mg/ml (0.5 mg/10 μl) (volume:volume) just before starting the reaction. The following reagents were successively added in the wells of an Optiplate (Perkin Elmer): 50 μl of ligand, 20 μl of the membranes:GDP mix, 10 μl of assay buffer for agonist testing, and 20 μl of the GTPγ[^35S]:beads mix. The plates were covered with a topseal, shacked on an orbital shaker for 2 min, and then incubated for 1 hour at room temperature. Then the plates were centrifuged for 10 min at 2000 rpm and counted for 1 min/well with a PerkinElmer TopCount reader. […] For replicate determinations, the maximum variability tolerated in the test was of ± 20% around the average of the replicates.

[5] = target: T3, N-type calcium channels (Homo sapiens, UniProt Q00975); assay: Whole-cell patch-clamp on N-type calcium channels; assay type: cell-based; settings: n = 5, read-out: effect on N-type calcium channels (inhibition)
T3 construct: expressed in transfected cells; host or cells: tsA-201 cells (general electrophysiology statement)

T2 sequence (O95180 whole entry): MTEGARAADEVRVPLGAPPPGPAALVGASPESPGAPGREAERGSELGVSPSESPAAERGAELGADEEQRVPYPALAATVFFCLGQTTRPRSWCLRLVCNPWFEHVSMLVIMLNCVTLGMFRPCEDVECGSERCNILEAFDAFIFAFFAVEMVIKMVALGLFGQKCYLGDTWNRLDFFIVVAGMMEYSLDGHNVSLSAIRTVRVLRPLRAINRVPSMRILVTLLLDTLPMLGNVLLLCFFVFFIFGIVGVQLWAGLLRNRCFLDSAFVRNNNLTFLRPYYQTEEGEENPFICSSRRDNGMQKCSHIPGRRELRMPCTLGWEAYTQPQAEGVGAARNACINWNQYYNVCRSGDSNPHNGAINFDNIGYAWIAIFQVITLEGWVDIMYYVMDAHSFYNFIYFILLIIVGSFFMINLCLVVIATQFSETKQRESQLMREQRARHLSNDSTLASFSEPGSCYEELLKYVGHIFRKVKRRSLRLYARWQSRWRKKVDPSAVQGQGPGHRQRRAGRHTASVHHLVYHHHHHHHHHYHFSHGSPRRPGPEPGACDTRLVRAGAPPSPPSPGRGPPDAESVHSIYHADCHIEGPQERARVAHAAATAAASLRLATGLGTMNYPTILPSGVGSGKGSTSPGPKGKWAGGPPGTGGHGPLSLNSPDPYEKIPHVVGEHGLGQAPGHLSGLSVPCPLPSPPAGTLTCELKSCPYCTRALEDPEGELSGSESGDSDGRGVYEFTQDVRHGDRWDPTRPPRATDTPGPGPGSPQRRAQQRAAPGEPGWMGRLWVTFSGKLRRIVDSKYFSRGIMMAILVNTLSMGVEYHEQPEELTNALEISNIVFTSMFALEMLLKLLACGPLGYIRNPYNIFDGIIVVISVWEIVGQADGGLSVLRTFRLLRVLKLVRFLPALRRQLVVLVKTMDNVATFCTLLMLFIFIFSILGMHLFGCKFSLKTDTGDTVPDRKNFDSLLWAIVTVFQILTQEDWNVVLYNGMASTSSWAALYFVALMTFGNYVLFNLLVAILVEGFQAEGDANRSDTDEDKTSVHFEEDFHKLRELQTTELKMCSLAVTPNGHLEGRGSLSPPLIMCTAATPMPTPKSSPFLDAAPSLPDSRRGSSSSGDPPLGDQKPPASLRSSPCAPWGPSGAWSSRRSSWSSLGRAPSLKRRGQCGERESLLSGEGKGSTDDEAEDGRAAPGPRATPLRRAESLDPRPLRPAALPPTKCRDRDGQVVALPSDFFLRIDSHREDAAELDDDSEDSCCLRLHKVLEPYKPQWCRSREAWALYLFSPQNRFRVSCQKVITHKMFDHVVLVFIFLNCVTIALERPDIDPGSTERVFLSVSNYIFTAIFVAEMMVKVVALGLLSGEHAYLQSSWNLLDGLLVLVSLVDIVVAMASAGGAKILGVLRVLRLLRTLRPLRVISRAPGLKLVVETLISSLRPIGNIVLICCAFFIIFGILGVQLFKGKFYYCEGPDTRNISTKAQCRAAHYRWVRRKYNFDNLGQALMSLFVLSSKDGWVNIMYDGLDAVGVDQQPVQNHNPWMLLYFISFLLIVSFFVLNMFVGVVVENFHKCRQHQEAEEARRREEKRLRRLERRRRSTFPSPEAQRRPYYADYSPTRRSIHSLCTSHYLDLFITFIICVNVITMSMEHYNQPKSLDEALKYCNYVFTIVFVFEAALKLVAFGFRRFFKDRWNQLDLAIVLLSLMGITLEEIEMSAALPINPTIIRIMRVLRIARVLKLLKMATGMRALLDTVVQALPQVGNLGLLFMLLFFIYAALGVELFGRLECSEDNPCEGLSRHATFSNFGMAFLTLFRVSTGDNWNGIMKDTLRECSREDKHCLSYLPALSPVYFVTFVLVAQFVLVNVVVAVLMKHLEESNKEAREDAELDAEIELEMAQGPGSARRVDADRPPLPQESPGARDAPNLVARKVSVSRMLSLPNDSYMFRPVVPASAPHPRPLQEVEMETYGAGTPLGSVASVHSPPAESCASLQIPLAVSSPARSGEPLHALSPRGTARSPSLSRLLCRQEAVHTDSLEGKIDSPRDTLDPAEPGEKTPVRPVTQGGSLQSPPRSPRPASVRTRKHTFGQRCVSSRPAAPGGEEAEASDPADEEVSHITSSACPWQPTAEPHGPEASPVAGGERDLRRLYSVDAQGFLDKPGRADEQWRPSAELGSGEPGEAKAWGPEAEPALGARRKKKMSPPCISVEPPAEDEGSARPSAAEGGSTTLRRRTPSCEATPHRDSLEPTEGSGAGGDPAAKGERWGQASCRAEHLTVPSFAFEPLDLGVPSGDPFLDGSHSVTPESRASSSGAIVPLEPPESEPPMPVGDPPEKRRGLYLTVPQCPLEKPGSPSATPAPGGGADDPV
T1 sequence (P28223 whole entry): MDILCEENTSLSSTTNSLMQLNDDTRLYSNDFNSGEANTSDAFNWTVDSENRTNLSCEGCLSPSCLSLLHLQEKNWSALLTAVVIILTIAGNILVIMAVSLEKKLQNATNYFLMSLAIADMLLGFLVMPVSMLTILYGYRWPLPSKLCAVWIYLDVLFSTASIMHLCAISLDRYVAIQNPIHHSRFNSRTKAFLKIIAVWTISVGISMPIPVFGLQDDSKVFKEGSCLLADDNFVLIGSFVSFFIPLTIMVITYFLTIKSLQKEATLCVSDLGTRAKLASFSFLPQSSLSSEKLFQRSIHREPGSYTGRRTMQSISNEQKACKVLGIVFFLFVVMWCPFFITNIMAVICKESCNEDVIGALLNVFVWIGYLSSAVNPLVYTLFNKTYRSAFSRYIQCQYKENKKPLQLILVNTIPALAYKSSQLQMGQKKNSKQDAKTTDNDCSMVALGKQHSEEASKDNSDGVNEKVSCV
Sequence of Human CB1 (P21554 whole entry): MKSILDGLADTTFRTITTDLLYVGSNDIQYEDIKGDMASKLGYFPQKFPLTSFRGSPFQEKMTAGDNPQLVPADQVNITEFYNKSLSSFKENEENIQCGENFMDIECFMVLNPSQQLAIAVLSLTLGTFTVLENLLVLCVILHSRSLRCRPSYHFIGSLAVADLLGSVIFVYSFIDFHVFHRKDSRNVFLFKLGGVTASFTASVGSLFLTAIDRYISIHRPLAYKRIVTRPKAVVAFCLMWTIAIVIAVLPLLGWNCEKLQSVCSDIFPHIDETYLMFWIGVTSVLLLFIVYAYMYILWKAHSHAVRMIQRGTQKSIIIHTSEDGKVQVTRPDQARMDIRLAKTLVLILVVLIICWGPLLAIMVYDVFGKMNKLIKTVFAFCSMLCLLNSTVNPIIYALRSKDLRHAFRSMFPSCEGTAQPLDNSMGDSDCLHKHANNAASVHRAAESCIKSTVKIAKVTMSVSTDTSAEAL

Structure (SMILES)	Human 5-HT2A (%) primary radioligand competitive binding [1] [%]	hyperpolarizing shift in the half inactivation potential of Cav3.2 channels [2]	half-inactivation potential after treatment with drug [2] [mV]	effect of i.pl. pre-treatment on the antinociceptive effect of NMP-7 (1 μg/i.pl.), first phase ([3]; NMP-4 0.03 μg/i.pl. pre-treatment)	effect on second phase of formalin-induced nociception [3]	effect on first phase of formalin-induced nociception [3]	reduction of pain response time, first (neurogenic) phase ([3]; i.t.) [%]	reduction of pain response time, second (inflammatory) phase ([3]; i.t.) [%]	EC50 [4] [nM]	Emax ([4]; read-out: GTPγ[35S] functional assays Human CB1 Emax) [%]	inhibition at 10 µM [5] [%]	lowest dose producing analgesia ([3]; i.t., formalin response) [μg/i.t.]
CCCCCn1c2ccc(C(=O)N3CCCCC3)cc2c2ccc(OC)cc21 [NMP-4]	23.9	20 mV	-72.9 ± 4.7	significantly antagonized	no effect was observed	no effect was observed	44 ± 4	87 ± 7	118 ± 4	30.4	–	–
CCCCCn1c2c(c3ccc(OC)cc31)CN(C(=O)c1ccccc1)CC2 [NMP-144]	-5.2	did not significantly affect voltage-dependent inactivation	-55.8 ± 2.2	–	no effect was observed	no effect was observed	52 ± 3	53 ± 14	–	–	20	0.3
